Patent US12195427B2, “MASP-2 inhibitors and methods of use” (priority 2018, dated 2025)
Where a name gives a salt, the structure may show the parent alone.

Biological target: MASP-2 CCP2-SP (Homo sapiens (Human), UniProt O00187)
Assay: MASP-2 co-crystallization, X-ray crystallography and structure analysis (H-bonds, van der Waals contacts);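 on Ligand-pharmacophore element distance, pharmacophore element C2: distance from averaged pharmacophore element to bound ligand; missing value means element absent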;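 on Ligand-pharmacophore element distance, pharmacophore element C3: distance from averaged pharmacophore element to bound ligand; missing value means element absent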;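 on Ligand-pharmacophore element distance, pharmacophore element C4: distance from averaged pharmacophore element to bound ligand; missing value means element absent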;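 on Ligand-pharmacophore element distance, pharmacophore element C5: distance from averaged pharmacophore element to bound ligand; missing value means element absent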
Parameters: van der Waals contact distance, MASP-2 HIS 483 atom CD2 / van der Waals contact distance, MASP-2 HIS 483 atom NE2 / van der Waals contact distance, SER 654 C to compound atom / van der Waals contact distance, SER 654 O to compound atom / van der Waals contact distance, TRP 655 C to compound atom / van der Waals contact distance, MASP-2 GLY 528 atom CA / van der Waals contact distance TRP 655 atom CZ3 / van der Waals contact distance TRP 655 atom N / van der Waals contact distance TRP 655 atom CE3 / van der Waals contact distance GLY 656 atom C / van der Waals contact distance GLY 656 atom CA / van der Waals contact distance GLY 656 atom O / van der Waals contact distance, MASP-2 TYR 607 atom CD1 / van der Waals contact distance, MASP-2 PRO 606 atom O / d(C3,CA1) / d(CA1,N1)2 / d(H4,O1) / d(H4,O2) / d(O1,O2) / d(CA1,O2) / d(CA6,O1) / d(CA6,O2) / d(CA1,C5) / d(O2,H3) / d(N2,C2) / d(CA5,N2) / d(N2,C4) / d(N2,C6) / d(N2,CA3) / d(N2,O3) / d(O4,H2): unit not given beside the values
Conditions: for H-bond distance to MASP-2 ASP 627 atom OD2: ASP 627 OD2; for H-bond distance to MASP-2 GLY 656 atom N: GLY 656 N
Outline: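 First, CCP2-SP constructs with or without a 6His tag are produced in E. coli. Crystals are then soaked once or twice with inhibitor, cryoprotected in 20% glycerol or frozen directly, and diffracted at synchrotron beamlines. Phasing uses molecular replacement with parts of 1Q3X.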

[1] = Table A5-1 pharmacophore: distance between elements, S2/S1 region
[2] = Table A5-2 pharmacophore distance, S3/S4 region
[3] = Table A7-1, between pharmacophore elements of the bound compound

Sequence of MASP-2 CCP2-SP (O00187 445-686): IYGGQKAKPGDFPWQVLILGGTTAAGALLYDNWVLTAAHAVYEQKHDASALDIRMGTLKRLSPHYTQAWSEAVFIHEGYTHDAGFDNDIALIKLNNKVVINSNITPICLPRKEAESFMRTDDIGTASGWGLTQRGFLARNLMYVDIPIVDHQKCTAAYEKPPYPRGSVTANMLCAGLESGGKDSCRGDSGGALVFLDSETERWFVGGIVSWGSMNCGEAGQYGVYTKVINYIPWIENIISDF
Sequence of MASP-2 CCP2-SP (O00187 364-432 partner): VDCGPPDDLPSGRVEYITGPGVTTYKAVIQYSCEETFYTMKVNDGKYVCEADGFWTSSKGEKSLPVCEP

Compound: C[C@H](NC(=O)[C@H](N)C1Cc2ccccc2C1)C(=O)NCc1ccc2c(N)nccc2c1 [compound 1088, (S)-2-((R)-2-Amino-2-(2,3-dihydro-1H-inden-2-yl)acetamido)-N-((1-aminoisoquinolin-6-yl)methyl)propanamide Dihydrochloride]
- H-bond distance to MASP-2 ASP 627 atom OD1 (Table A1 (H-Bonds), ASP 627 OD1): 2.91
- H-bond distance to MASP-2 ASP 627 atom OD2 (Table A1 (H-Bonds)): 3.16
- H-bond distance to MASP-2 GLY 656 atom N (Table A1 (H-Bonds)): 3.22
- H-bond distance to MASP-2 SER 628 atom OG (Table A1 (H-Bonds), SER 628 OG): 3.16
- H-bond distance to MASP-2 SER 654 atom O (Table A1 (H-Bonds), SER 654 O): 2.89
- van der Waals contact distance, MASP-2 PRO 606 atom C (Table A2-4): 3.89
- van der Waals contact distance, MASP-2 TYR 607 atom CD1 (Table A2-4): 3.82
- van der Waals contact distance, MASP-2 amino acid atom to compound atom (Table A2-5: TYR 607 (CE1, CE2, OH), PRO 608 (CD, CG), SER 611 (CA)): 3.73
- van der Waals contact distance, MASP-2 amino acid atom to compound atom (Table A2-9, ARG 630, AA atoms CG, CZ): 3.79
- van der Waals contact distance SER 657 atom C (Table A2-14, MASP-2 SER 657 C, columns c12-c13 (inferred)): 3.64

Compound: C[C@H](NC(=O)[C@H]1C[C@@H](c2ccccc2)CCN1)C(=O)NCc1cc(Cl)ccc1O.Cl [1078_12]
- Ligand-pharmacophore element distance, pharmacophore element C2 (Table A4-1, element C2): 0.4
- Ligand-pharmacophore element distance, pharmacophore element C3 (Table A4-1, element C3): 0
- Ligand-pharmacophore element distance, pharmacophore element C4 (Table A4-1, element C4): 0
- Ligand-pharmacophore element distance, pharmacophore element C5 (Table A4-1, element C5): 0.52
- Ligand-pharmacophore element distance, pharmacophore element C6 (Table A4-1, element C6): 0
- Ligand-pharmacophore element distance, pharmacophore element C7 (Table A4-1, element C7): 0
- Ligand-pharmacophore element distance, pharmacophore element CA1 (Table A4-1, element CA1): 1.43
- Ligand-pharmacophore element distance, pharmacophore element CA2 (Table A4-1, element CA2): 0.64
- Ligand-pharmacophore element distance, pharmacophore element CA3 (Table A4-1, element CA3): 0
- Ligand-pharmacophore element distance, pharmacophore element CA4 (Table A4-1, element CA4): 0
- Ligand-pharmacophore element distance, pharmacophore element CA5 (Table A4-1, element CA5): 0
- Ligand-pharmacophore element distance, pharmacophore element CA6 (Table A4-1, element CA6): 0
- d(CA1,C5) [1]: 3.12
- d(CA1,O1) [1]: 4.34
- d(CA1,O2) [1]: 4.51
- d(CA1,O4) [1]: 2.74
- d(H4,O1) [1]: 3.08
- d(H4,O2) [1]: 3.40
- d(O1,O2) [1]: 2.81
- d(O4,H2) [1]: 0.98
- d(N2,C2) [2]: 1.45
- d(N2,CA2) [2]: 5.74
- d(O2,H3) [2]: 2.85
- d(O2,N2) [2]: 2.84
- a(C5, CA1, O1) (Table A6-1 pharmacophore angle): 161.92
- a(CA1, O1, O2) (Table A6-1 pharmacophore angle): 111.74
- a(CA1, O4, H2) (Table A6-1 pharmacophore angle): 127.55
- a(O1, CA1, O4) (Table A6-1 pharmacophore angle): 67.44
- a(O1, O2, H4) (Table A6-1 pharmacophore angle): 128.90
- a(O1, O2, H3) (Table A6-2 pharmacophore angle): 150.80
- a(O1, O2, N2) (Table A6-2 pharmacophore angle): 154.56
- a(O2, N2, C2) (Table A6-2 pharmacophore angle): 130.32
- a(O2, N2, CA2) (Table A6-2 pharmacophore angle): 157.60
- Pharmacophore torsion angle a(C5, CA1, O1, H4) [3]: 11.21
- Pharmacophore torsion angle a(H4, O1, O2, H3) [3]: −120.32
- Pharmacophore torsion angle a(H4, O1, O2, N2) [3]: −108.09
- Pharmacophore torsion angle a(O1, H4, O2, CA1) [3]: −75.33
- Pharmacophore torsion angle a(O1, O2, N2, C2) [3]: 114.97
- Pharmacophore torsion angle a(O1, O2, N2, CA2) (Table A7-2, between pharmacophore elements of the bound compound): 110.39

Compound: C[C@H](NC(=O)[C@H]1C[C@H](Cc2ccccc2)CN1)C(=O)NCc1ccc(C(=N)N)cc1 [compound 1306, (2R,4S)-4-Benzyl-N—((S)-1-((4-carbamimidoylbenzyl)amino)-1-oxopropan-2-yl)pyrrolidine-2-carboxamide]
- H-bond distance to MASP-2 ASP 627 atom OD2 (Table A1 (H-Bonds)): 2.6
- H-bond distance to MASP-2 GLY 656 atom N (Table A1 (H-Bonds)): 3.05
- H-bond distance to MASP-2 GLY 656 atom O (Table A1 (H-Bonds), GLY 656 O): 2.69
- H-bond distance to MASP-2 SER 628 atom O (Table A1 (H-Bonds), SER 628 O): 2.24
- H-bond distance to MASP-2 SER 657 atom O (Table A1 (H-Bonds), SER 657 O): 2.87
- van der Waals contact distance, MASP-2 HIS 483 atom CD2 (Table A2-1): 3.47
- van der Waals contact distance, MASP-2 HIS 483 atom NE2 (Table A2-1): 3.32
- van der Waals contact distance, MASP-2 PHE 529 atom CZ (Table A2-3): 3.63
- van der Waals contact distance, MASP-2 TYR 607 atom CD1 (Table A2-4): 3.85
- van der Waals contact distance, MASP-2 amino acid atom to compound atom (Table A2-9 second part, ARG 630, AA atoms N, NE, NH1): 3.76
- van der Waals contact distance GLY 656 atom C (Table A2-13, MASP-2 GLY 656 C): 3.54
- van der Waals contact distance GLY 656 atom CA (Table A2-13, MASP-2 GLY 656 CA): 3.61
